These are literature values, as cited in patent US5786344A, “Camptothecin drug combinations and methods with reduced side effects” (priority 1995, dated 1998).

“And” between values parts separate entries of the source, which are not always exact repeats. Equal values may be shown once. “Also recorded” adds a separate entry of the source.

In one series the test system is DNA topoisomerase 1. The following applies: cited from earlier work.
The conditions of series [1]: sodium salt; cited from earlier work.
Another series has as its system tumors. The following applies: sodium salt vs closed lactone; cited from earlier work.
The test system of series [2] is p-glycoprotein. The note with it: mouse, in vivo; cited from earlier work.
Series [3] has as its system O . volvulus microfilaria. The following applies: cited from earlier work.
For series [4] the following is noted: cited from earlier work.
The subject of series [5] is p-glycoprotein. The following applies: cited from earlier work.
Series [6] concerns multi-drug resistance (MDR) P388 cells. The following applies: cited from earlier work.
In series [7] the test system is p-glycoprotein. The following applies: cited from earlier work. The source holds these as a separate data set.

In the case of `CC[C@@]1(O)C(=O)OCc2c1cc1n(c2=O)Cc2cc3ccccc3nc2-1` [Camptothecin], the “concentration producing nicks in the DNA” value in the series on DNA topoisomerase 1 is “about 0.5 μM”. In addition, the “dose-limiting toxicity in early clinical trials” value in series [1] is “severe dose-limiting hemorrhagic cystitis and unpredictable myelosuppression”. In addition, the antitumor activity reduction entry with tumors is “about 10 fold”.

With `CC[C@H](C)[C@H]1O[C@]2(CC[C@@H]1C)C[C@@H]1C[C@@H](C/C=C(\C)[C@@H](O[C@H]3C[C@H](OC)[C@@H](O[C@H]4C[C@H](OC)[C@@H](O)[C@H](C)O4)[C@H](C)O3)[C@@H](C)/C=C/C=C3\CO[C@@H]4[C@H](O)C(C)=C[C@@H](C(=O)O1)[C@]34O)O2` [Ivermectin], the “sensitivity of p-glycoprotein-disrupted mice” value in the series on p-glycoprotein [2] is “increased sensitivity”. In addition, in series [3] (single dose), the cure of strongyloidiasis entry is listed as “can cure human strongyloidiasis”. In addition, the “reduction of microfilaria in skin and ocular tissues” value in [3] (single oral dose 0.15 to 0.20 mg/kg) was “rapid and marked reduction”. Moreover, in series [4] (oral), the “time to peak plasma concentration” value is at most 4 h. The half-life result in series [4] (plasma or terminal half-life) is “about 10 hours”.

Consider `C/C=C/C[C@@H](C)C(=O)[C@H]1C(=O)N[C@@H](C(C)C)C(=O)N(C)CC(=O)N(C)[C@@H](CC(C)C)C(=O)N[C@@H](C(C)C)C(=O)N(C)[C@@H](CC(C)C)C(=O)N[C@@H](C)C(=O)N[C@H](C)C(=O)N(C)[C@@H](CC(C)C)C(=O)N(C)[C@@H](CC(C)C)C(=O)N(C)[C@@H](C(C)C)C(=O)N1C` [SDZ PSC 833], for which the “effect of acidic extracellular conditions on inhibitory activity” value in the series with p-glycoprotein [5] (acidic pH) was “not affected by acidic extracellular conditions”. Further, in the series on p-glycoprotein [5], the “inhibition of vinblastine transport” value was “the most effective inhibitor”; the lowest inhibitory concentration is 10 ng/ml and 9 nM. In addition, the “activity relative to cyclosporine A in restoring drug sensitivity” value in [6] was “at least one order of magnitude more active than cyclosporine A”. Besides, in the series with p-glycoprotein [7], the “inhibition of / interaction with p-glycoprotein” value is reported as “inhibited p-glycoprotein; also recorded: effective inhibitor; also recorded: effective at inhibiting p-glycoprotein”. Also, the “persistence of p-glycoprotein inhibition” value in the series with p-glycoprotein [7] (single pulse exposure) was “still exhibiting inhibition of p-glycoprotein function even two days after a single pulse exposure”. In addition, the “p-glycoprotein inhibition relative to comparator” value in the series with p-glycoprotein [7] (vs verapamil, cyclosporine A, progesterone or anthracycline analogues) is given as “more effective than cyclosporine A; also recorded: stronger inhibitors than verapamil”.
